The source of these data is US20230116760A1, “STRUCTURALLY-STABILIZED ONCOLYTIC PEPTIDES AND USES THEREOF” (Dana-Farber Cancer Institute, Inc., priority 2019, published 2023).

Bridge positions count the residues as written; N and C are the ends. Square brackets hold non-standard residues; d marks the D form. Ends that are not written are not given here. Peptide text beside a SMILES is read from it. S5 = C=CCCC[C@](C)(N)C(=O)O; Nle = CCCC[C@H](N)C(=O)O

One data set concerns red blood cells (RBCs). The class given is cell-based, human. The procedure: RBC hemolysis assay: To assess the hemolytic activity of a structurally-stabilized peptide described herein, a red blood cell (RBV) hemolysis assay can be used. Human blood samples are centrifuged to isolate RBCs, which are then washed and suspended in phosphate-buffered saline to yield a 1% (v/v) suspension. The suspension is added to serial dilutions of peptide stocks in water in clear round-bottom polypropylene 96-well plates and the plates incubated for 1 hour at 37° C. The plates are then centrifuged and the supernatant isolated to determine the amount of hemoglobin released using a spectrophotometer (570 nm). Percent hemolysis is calculated as: ([Treated Absorbance−Untreated Control Absorbance]×100)/(1% Triton X-100 Treated Absorbance−Untreated Control Absorbance).
Stapled oncolytic peptide synthesis: Fmoc-based solid-phase peptide synthesis was used to synthesize stapled antimicrobial peptides in accordance with previously reported methods for generating all-hydrocarbon stapled peptides. To achieve the various staple lengths, α-methyl, α-alkenyl amino acids were installed at i, i+4 positions using two S-pentenyl alanine residues (S5). For the stapling reaction, Grubbs 1st generation ruthenium catalyst dissolved in dichloroethane was added to the resin-bound peptides. To ensure maximal conversion, three to five rounds of stapling were performed. The peptides were then cleaved off of the resin using trifluoroacetic acid, precipitated using a hexane:ether (1:1) mixture, air dried, and purified by LC-MS. All peptides were quantified by amino acid analysis. RBC hemolysis assay: Human blood samples were centrifuged to isolate red blood cells (RBCs), which were then washed and suspended in phosphate-buffered saline to yield a 1% (v/v) suspension. The suspension was added to serial dilutions of peptide stocks in water in clear round-bottom polypropylene 96-well plates and the plates incubated for 1 hour at 37° C. The plates were then centrifuged and the supernatant isolated to determine the amount of hemoglobin released using a spectrophotometer (570 nm). Percent hemolysis was calculated as: ([Treated Absorbance−Untreated Control Absorbance]×100)/(1% Triton X-100 Treated Absorbance−Untreated Control Absorbance).

For the next data set, the system named is OCI-AML3 cells. Description: LDH release assay of OCI-AML3 cells. Format: cell-based, human. Particulars: 90 minutes; for cancer cell lysis by LDH release, compared with parent Mag(i+4)15: 10 and 25 μg/mL, FIG. 6, FIG. 7; for susceptibility of OCI-AML3 cells to iStOPs (LDH release): FIG. 19. The procedure:
(§1) LDH release assay: To assess the release of lactate dehydrogenase (LDH) upon treatment with a structurally-stabilized peptide described herein, an LDH release assay can be used. Cultured cells, including, e.g., cancer cells and HUVEC cells, are plated in 96-well format (2×10^4 cells per well; including overnight incubation for adherent cells) and then treated with serial dilutions of structurally-stabilized peptides in a final volume in a final volume of 100 μL and incubated at 37° C. for the indicated time period (e.g., 90 minutes). The plates are spun down at 1500 rpm for 5 minutes at 4° C., and 80 μL of cell culture media is transferred to a clear plate (Corning), incubated with 80 μL of LDH reagent (Roche) for 15 minutes while shaking, and absorbance is measured at 490 nm on a microplate reader (SpectraMax M5 Microplate Reader, Molecular Devices). LDH release assays, as tailored to specific cancer cell types (OCI-AML3 cells and primary human pediatric B-ALL cells), are exemplified below.
LDH release assay of OCI-AML3 cells: OCI-AML3 cells are seeded in 96-well plates (2×10^4 cells per well) in RPMI medium containing 5% FBS and treated with structurally-stabilized peptides for 90 minutes. LDH release is quantified by incubating centrifuged (e.g., at 1500 rpm) cell culture medium 1:1 with LDH reagent (Roche), followed by absorbance measurement 490 nm on a microplate reader (Spectramax M5). Percent LDH release was normalized to 1% Triton.
(§2) LDH release assay: Cultured cells, including cancer cells and HUVEC cells, were plated in 96-well format (2×10^4 cells per well; including overnight incubation for adherent cells) and then treated with serial dilutions of Mag(i+4) peptides in a final volume in a final volume of […] and incubated at 37° C. for the indicated time period. The plates were spun down at 1500 rpm for 5 min at 4° C., and 80 μL of cell culture media was transferred to a clear plate (Corning), incubated with 80 μL of LDH reagent (Roche) for 15 min while shaking, and absorbance measured at 490 nm on a microplate reader (SpectraMax M5 Microplate Reader, Molecular Devices). LDH release assays, as tailored to specific cancer cell types, are exemplified below.
LDH release assay of OCI-AML3 cells: OCI-AML3 cells were seeded in 96-well plates (2×10^4 cells per well) in RPMI medium containing 5% FBS and treated with peptides having the indicated amino acid sequences for 90 minutes. LDH release was quantified by incubating centrifuged cell culture medium 1:1 with LDH reagent (Roche), followed by absorbance measurement 490 nm on a microplate reader (Spectramax M5). Percent LDH release was normalized to 1% Triton. Data was pooled from 2 technical replicates.
(LDH leaks from cells whose membrane has failed.)

A further data set concerns U937 cells. Description: LDH release assay of U937 cells. Format: cell-based. Conditions: 10 and 25 μg/mL, 90 minutes, FIG. 6, FIG. 7. As for the experimental part:
as §1, §2

Turning to `CCCC[C@H](NC(=O)[C@@H](NC(=O)[C@H](CCC(=O)O)NC(=O)CNC(=O)[C@@H](NC(=O)[C@H](Cc1ccccc1)NC(=O)[C@H](C)NC(=O)[C@H](CCCCN)NC(=O)CNC(=O)[C@H](Cc1ccccc1)NC(=O)[C@H](CCCCN)NC(=O)[C@H](CCCCN)NC(=O)[C@H](C)NC(=O)[C@H](CO)NC(=O)[C@H](Cc1c[nH]cn1)NC(=O)[C@H](CC(C)C)NC(=O)[C@]1(C)CCCC=CCCC[C@](C)(N)C(=O)N[C@@H]([C@@H](C)CC)C(=O)NCC(=O)N[C@@H](CCCCN)C(=O)N1)C(C)C)[C@@H](C)CC)C(=O)N[C@@H](CC(N)=O)C(=O)N[C@@H](CO)C(N)=O` [Mag(i+4)0, X1IGKX2LHSAKKFGKAFVGEIBNS] (H-[S5]IGK[S5]LHSAKKFGKAFVGEI[Nle]NS-NH2; staple 1-5), the RBC lysis entry in the data set on red blood cells (RBCs) is reported as “little to no effect on RBCs”.
Consider “GIEKFLHSAKKFGKAX1VGEX2BNS (GIEKFLHSAKKFGKA[S5]VGE[S5][Nle]NS; staple 16-20) [Mag(i+4)15 (G3E)]”, for which the “cancer cell lysis by LDH release, compared with parent Mag(i+4)15” value in the data set with OCI-AML3 cells and with U937 cells was “retained potent membrane lysis” throughout.
Consider “GIGKFLESAKKFGKAX1VGEX2BNS (GIGKFLESAKKFGKA[S5]VGE[S5][Nle]NS; staple 16-20) [Mag(i+4)15 (H7E)]”, for which, in the data set with OCI-AML3 cells, the “cancer cell lysis by LDH release, compared with parent Mag(i+4)15” value is listed as “retained potent membrane lysis”; the “susceptibility of OCI-AML3 cells to iStOPs (LDH release)” value (“susceptibility of OCI-AML3 cells” for short) is “especially potent and selective activity”. In addition, in the data set with U937 cells, the “cancer cell lysis by LDH release, compared with parent Mag(i+4)15” value is “retained potent membrane lysis”.
In the case of “GIGKFLHEAKKFGKAX1VGEX2BNS (GIGKFLHEAKKFGKA[S5]VGE[S5][Nle]NS; staple 16-20) [Mag(i+4)15 (S8E)]”, the “cancer cell lysis by LDH release, compared with parent Mag(i+4)15” value in the data set with OCI-AML3 cells and with U937 cells was “retained potent membrane lysis” each time.
In the case of “GIGKFLHKAKKFGKAX1VGEX2BNS (GIGKFLHKAKKFGKA[S5]VGE[S5][Nle]NS; staple 16-20) [Mag(i+4)15 (S8K)]”, the “cancer cell lysis by LDH release, compared with parent Mag(i+4)15” value is “retain substantial, if not all, oncolytic activity” in the data set with OCI-AML3 cells and “retain substantial, if not all, oncolytic activity” in the data set on U937 cells.
As for “GIGKFLHSAKKFGKAX1VEEX2BNS (GIGKFLHSAKKFGKA[S5]VEE[S5][Nle]NS; staple 16-20) [Mag(i+4)15 (G18E)]”, in the data set with OCI-AML3 cells, the “cancer cell lysis by LDH release, compared with parent Mag(i+4)15” value is recorded as “retained potent membrane lysis”; the “susceptibility of OCI-AML3 cells” value is “especially potent and selective activity”. Besides, in the data set with U937 cells, the “cancer cell lysis by LDH release, compared with parent Mag(i+4)15” value is “retained potent membrane lysis”.
As for “GIGKFLHSAKKFGKAX1VGEX2BES (GIGKFLHSAKKFGKA[S5]VGE[S5][Nle]ES; staple 16-20) [Mag(i+4)15 (N22E)]”, in the data set on OCI-AML3 cells, the “cancer cell lysis by LDH release, compared with parent Mag(i+4)15” value was “retained potent membrane lysis”; the “susceptibility of OCI-AML3 cells” value is “especially potent and selective activity”. The “cancer cell lysis by LDH release, compared with parent Mag(i+4)15” value with U937 cells is on record as “retained potent membrane lysis”.
As to “GIGKFLHSAKKFGKAX1VGEX2BKS (GIGKFLHSAKKFGKA[S5]VGE[S5][Nle]KS; staple 16-20) [Mag(i+4)15 (N22K)]”, the “cancer cell lysis by LDH release, compared with parent Mag(i+4)15” value in the data set on OCI-AML3 cells is listed as “retain substantial, if not all, oncolytic activity”; with U937 cells, “retain substantial, if not all, oncolytic activity”.
With “GIGKFLHSAKKFGKAX1VGEX2BNE (GIGKFLHSAKKFGKA[S5]VGE[S5][Nle]NE; staple 16-20) [Mag(i+4)15 (S23E)]”, in the data set with OCI-AML3 cells, the “cancer cell lysis by LDH release, compared with parent Mag(i+4)15” value was “retained substantial or all cancer cell killing activity”; the “susceptibility of OCI-AML3 cells” value is “especially potent and selective activity”. For the same compound, in the data set with U937 cells, the “cancer cell lysis by LDH release, compared with parent Mag(i+4)15” value was “retained substantial or all cancer cell killing activity”.
Take “GIGKFLHSAKKFGKAX1VGEX2KNS (GIGKFLHSAKKFGKA[S5]VGE[S5]KNS; staple 16-20) [Mag(i+4)15 (M21K)]”: the “cancer cell lysis by LDH release, compared with parent Mag(i+4)15” value is “retain substantial, if not all, oncolytic activity” with OCI-AML3 cells and “retain substantial, if not all, oncolytic activity” with U937 cells.
Turning to “GIGKFLHSAKKFGKAX1VGKX2BNS (GIGKFLHSAKKFGKA[S5]VGK[S5][Nle]NS; staple 16-20) [Mag(i+4)15 (E19K)]”, the “cancer cell lysis by LDH release, compared with parent Mag(i+4)15” value is recorded as “retain substantial, if not all, oncolytic activity” in the data set with OCI-AML3 cells and “retain substantial, if not all, oncolytic activity” with U937 cells.
With “GIGKFLHSAKKFGKAX1VKEX2BNS (GIGKFLHSAKKFGKA[S5]VKE[S5][Nle]NS; staple 16-20) [Mag(i+4)15 (G18K)]”, the “cancer cell lysis by LDH release, compared with parent Mag(i+4)15” value in the data set with OCI-AML3 cells is reported as “retain substantial, if not all, oncolytic activity”; in the data set with U937 cells, “retain substantial, if not all, oncolytic activity”.
Consider “GIGKFLHSAKKFGKEX1VGEX2BNS (GIGKFLHSAKKFGKE[S5]VGE[S5][Nle]NS; staple 16-20) [Mag(i+4)15 (A15E)]”, for which the “cancer cell lysis by LDH release, compared with parent Mag(i+4)15” value in the data set on OCI-AML3 cells and with U937 cells was “retained substantial or all cancer cell killing activity” in each case. Moreover, the “susceptibility of OCI-AML3 cells” value with OCI-AML3 cells was “especially potent and selective activity”.
On to “GIGKFLHSAKKFGKKX1VGEX2BNS (GIGKFLHSAKKFGKK[S5]VGE[S5][Nle]NS; staple 16-20) [Mag(i+4)15 (A15K)]”, for which the “cancer cell lysis by LDH release, compared with parent Mag(i+4)15” value is given as “retain substantial, if not all, oncolytic activity” with OCI-AML3 cells and “retain substantial, if not all, oncolytic activity” in the data set with U937 cells.
“GIGKFLKSAKKFGKAX1VGEX2BNS (GIGKFLKSAKKFGKA[S5]VGE[S5][Nle]NS; staple 16-20) [Mag(i+4)15 (H7K)]”: the “cancer cell lysis by LDH release, compared with parent Mag(i+4)15” value in the data set on OCI-AML3 cells was “retain substantial, if not all, oncolytic activity”; in the data set with U937 cells it was “retain substantial, if not all, oncolytic activity”.
Turning to “GIKKFLHSAKKFGKAX1VGEX2BNS (GIKKFLHSAKKFGKA[S5]VGE[S5][Nle]NS; staple 16-20) [Mag(i+4)15 (G3K)]”, the “cancer cell lysis by LDH release, compared with parent Mag(i+4)15” value in the data set on OCI-AML3 cells is listed as “retain substantial, if not all, oncolytic activity”; in the data set on U937 cells, “retain substantial, if not all, oncolytic activity”.
As to “iStOP 11: integrated StOP of Magainin II combining staples and point mutation(s); sequence only in FIG. 17B ([S5]IGK[S5]LHSKKKFGKA[S5]VGE[S5][Nle]NS; staple 1-5, 16-20)”, the “susceptibility of OCI-AML3 cells” value in the data set on OCI-AML3 cells was “especially potent and selective activity”.
